{
  "source": "patent US20230309840A1",
  "about": "“TARGETING ABNORMAL CELL POPULATIONS FOR APOPTOSIS” (priority 2020, published 2023)",
  "origin": "cited, not measured here",
  "key": {"[1]": {"system": "senescent human fibroblasts", "conditions": "at 100 μM"}, "cancer cells": {"system": "cancer cells", "conditions": "for anti-cancer activity: compared with curcumin"}, "[2]": {"system": "prostate cancer (Pica) cell"}, "Drosophila melanogaster": {"system": "Drosophila melanogaster", "conditions": "in vivo"}, "[3]": {"conditions": "in vivo"}, "Caenorhabditis elegans": {"system": "Caenorhabditis elegans", "conditions": "in vivo"}, "[4]": {"system": "airway inflammation and oxidative stress"}, "tumor": {"system": "tumor", "conditions": "tumor-bearing mouse model, vs free cisplatin"}},
  "data": [
    {"molecule": "CC[C@H]1OC(=O)[C@H](C)[C@@H](O[C@H]2C[C@@](C)(OC)[C@@H](O)[C@H](C)O2)[C@H](C)[C@@H](O[C@@H]2O[C@H](C)C[C@H](N(C)C)[C@H]2O)[C@](C)(O)C[C@@H](C)CN(C)[C@H](C)[C@@H](O)[C@]1(C)O", "note": "[Azithromycin]", "values": [
      {"measurement": "effect on control cells", "setting": "control cells", "value": "without affecting control cells"},
      {"measurement": "elimination of senescent cells", "setting": "[1]", "value": "selectively eliminated large numbers of senescent cells"}
    ]},
    {"molecule": "O=C1/C(=C/c2ccccc2F)CNC/C1=C\\c1ccccc1F", "note": "[EF24]", "values": [
      {"measurement": "anti-cancer activity", "setting": "cancer cells", "value": "more efficacious against various cancer cells"},
      {"measurement": "potency in inducing cancer cell death", "setting": "cancer cells; relative to curcumin", "value": 10, "unit": "fold"},
      {"measurement": "killing of senescent cells in combination", "setting": "senescent cells; combined with Navitoclax", "value": "synergistically kill senescent cells"},
      {"measurement": "cell viability of senescent cells", "setting": "senescent cells; variety of senescent cells", "value": "selectively decrease the cell viability"}
    ]},
    {"molecule": "CC(C)=CCC/C(C)=C/CC/C(C)=C/CC[C@]1(C)CCc2cc(O)c(C)c(C)c2O1", "note": "[γ-Tocotrienols]", "values": [
      {"measurement": "inhibition of cell proliferation and invasion", "setting": "[2]", "value": "potent and specific inhibitor"}
    ]},
    {"molecule": "COc1cc(/C=C/C(=O)CC(=O)/C=C/c2ccc(O)c(OC)c2)ccc1O", "note": "[curcumin, Curcumin]", "values": [
      {"measurement": "solubility in water", "value": "low aqueous solubility"},
      {"measurement": "lifespan and health span", "setting": "Drosophila melanogaster", "value": "prolong lifespan and extend health span"},
      {"measurement": "bioavailability", "setting": "[3]", "value": "poor oral bioavailability"},
      {"measurement": "lifespan and health span", "setting": "Caenorhabditis elegans", "value": "prolong lifespan and extend health span"}
    ]},
    {"molecule": "CC1(C)C=C(CN2C/C(=C\\c3ccc(F)cc3)C(=O)/C(=C/c3ccc(F)cc3)C2)C(C)(C)N1O", "note": "[HO-3867]", "values": [
      {"measurement": "anti-cancer activity", "setting": "cancer cells", "value": "better anti-cancer activities than curcumin"}
    ]},
    {"molecule": "O=c1c(O)c(-c2ccc(O)c(O)c2)oc2cc(O)cc(O)c12", "note": "[Quercetin]", "values": [
      {"measurement": "solubility in water", "value": "poorly soluble in water"},
      {"measurement": "bioavailability", "setting": "[3]", "value": "very low"}
    ]},
    {"molecule": "C[C@H]1[C@H](OC(=O)CCC(=O)O)O[C@@H]2O[C@@]3(C)CC[C@H]4[C@H](C)CC[C@@H]1[C@@]24OO3", "note": "[Artesunate]", "values": [
      {"measurement": "effect on cancer cell lines", "setting": "cancer cell lines", "value": "cytotoxic effects"}
    ]},
    {"molecule": "CC[C@H]1OC(=O)[C@H](C)[C@@H](O[C@H]2C[C@@](C)(OC)[C@@H](O)[C@H](C)O2)[C@H](C)[C@@H](O[C@@H]2O[C@H](C)C[C@H](N(C)C)[C@H]2O)[C@](C)(O)C[C@@H](C)/C(=N\\OCOCCOC)[C@H](C)[C@@H](O)[C@]1(C)O", "note": "[Roxithromycin]", "values": [
      {"measurement": "elimination of senescent cells", "setting": "[1]", "value": "selectively eliminated large numbers of senescent cells"}
    ]},
    {"molecule": "[HH]", "note": "[hydrogen gas, hydrogen]", "values": [
      {"measurement": "number of total cells, eosinophils, and lymphocytes", "setting": "[4]; bronchial alveolar lavage fluid, inhalation", "value": "significantly reduced"},
      {"measurement": "IL-4 serum level", "setting": "[4]; following inhalation", "value": "significantly decreased"},
      {"measurement": "activity of superoxide dismutase", "setting": "[4]; inhalation", "value": "markedly upregulated"},
      {"measurement": "increased level of malondialdehyde and myeloperoxidase", "setting": "[4]; inhalation", "value": "significantly attenuated"},
      {"measurement": "level of IL-4, IL-13, TNF-α and chemokine (C-X-C motif) ligand 15", "setting": "[4]; inhalation", "value": "increased the level"}
    ]},
    {"molecule": "Tf-cisplatin complex: transferrin (Tf) conjugated cisplatin", "values": [
      {"measurement": "toxicity in other tissues", "setting": "tumor", "value": "less toxicity in other tissues"},
      {"measurement": "tumor growth inhibition", "setting": "tumor", "value": "inhibited tumor growth in vivo more effectively than free cisplatin"}
    ]},
    {"molecule": "COc1ccc(/C=C/C(=O)CC(=O)/C=C/c2ccc(OC)c(OC)c2)cc1OC", "note": "[DIMC, dimethoxycurcumin]", "values": [
      {"measurement": "anti-cancer activity", "setting": "cancer cells", "value": "better anti-cancer activities than curcumin"}
    ]}
  ]
}
